{"source": "patent US20230255982A1", "about": "(priority 2020, published 2023)", "origin": "cited, not measured here", "tested_on": "stage 3-4 CKD patients with diabetic nephropathy", "details": "ASCEND", "note": "Where two headings read alike, the source gives them in different places. Marks after values point to notes of the source that are not given here.", "data": [{"smiles": "COc1ccccc1Oc1c(NS(=O)(=O)c2ccc(C)cn2)nc(-c2ccncc2)nc1OC", "note": "[Avosentan]", "values": [{"measurement": "Occurrence of CHF", "setting": "25 mg, N = 455", "result": 5.9, "unit": "%*"}, {"measurement": "Occurrence of ESRD", "setting": "25 mg, N = 455", "result": 4.4, "unit": "%"}, {"measurement": "Occurrence of CHF", "setting": "50 mg, N = 478", "result": 6.1, "unit": "%*"}, {"measurement": "Occurrence of ESRD", "setting": "50 mg, N = 478", "result": 5.0, "unit": "%"}]}]}
